Reference: patent US5147876A, “2,6-di,2,4,6-, 2,5,6-tri and 2,4,5,6-tetra-substituted pyrimidines, their pharmaceutically acceptable salts, pharmaceutical compositions containing same and their use in the treatment of neurological diseases” (Mitsui Petrochemical Industries, Ltd., priority 1988, dated 1992)

How the values were obtained:
[1] = test system: NS-20Y (mouse neuroblastoma cells); assay: Activity on NS-20Y cells: appearance of neurites; format: cell-based
Experimental: The effects of the compounds of this invention on neuroblastoma cells were examined by the following method.
Mouse neuro 2a cells in the logarithmic growth period in the Dulbecco's modified Eagle's medium DMEM, containing 100 units/ml of penicillin G sodium and 100 micrograms/ml of streptomycin sulfate]containing 10 % of FCS were seeded in a 48-well plate so that the number of cells was 1,000 cells/well, and cultured for one day in 0.25 ml of the culture fluid in each well in an incubator containing 5 % of carbon dioxide gas in air at 37° C. Then, a 4 % aqueous glutaraldehyde solution in the same amount as a medium (0.25 ml) was added, and the culture fluid was left to stand at room temperature for 2 hours to fix the cells. After washing with water, a 0.05 % aqueous solution of methylene blue was added to stain the cells Under a microscope, the number of cells containing outgrown neurites (cells having at least one neurite with a length of at least two times as large as the long diameter of the cell) was counted visually, and the proportion of these cells in the entire cells was calculated. The well was observed over 5 or more visual fields (at least 2 % of the entire surface area of the well) continuous to the left and right from a mark put at the center of the well, and more than 200 cells was counted. One drug compound was used in 6 different concentrations at most, and three runs were conducted for each concentrations.
Mouse neuroblastoma cells NS-20Y were similarly cultured in a dish coated with polyornithine, and the effects of the compounds were examined.

[2] = test system: neuro-2a (mouse neuroblastoma cells); assay: Action on neuro-2a: proportion of cells containing outgrown neurites; format: cell-based; conditions: mean ± S.D.
Method in brief: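 Mouse neuro-2a cells at 1,000 cells/well in DMEM with 10% FCS were cultured one day at 37 °C, 5% CO2, then glutaraldehyde-fixed and methylene-blue-stained. The proportion of cells bearing a neurite at least twice the cell's long diameter was counted over >200 cells; up to 6 concentrations, triplicate runs.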

[3] = Acute toxicity on mice; format: in vivo; conditions: mouse, in vivo, ip, 24 hours after administration; read-out: Estimated LD50
Experimental: The acute toxicity of the compounds of the invention was examined by the following method.
Male ddy-strain 5-week old mice, 4-6- per group, were used as experimental animals. Each of the compounds was intraperitoneally (i.p.), and the toxicity of the compound was assessed 24 hours after the administration.

## CCCCN(CCCC)c1nccc(N(C)C(=O)c2ccccc2)n1 [Compound 112]
[1]; 24 hours, 0.025 mM
  Number of cells in which neurites appeared/total number of cells: 4/51
[1]; 48 hours, 0.01 mM
  Number of cells in which neurites appeared/total number of cells: 4/49
[1]; 48 hours, 0.025 mM
  Number of cells in which neurites appeared/total number of cells: 9/50
[2]; 0.03 mM
  Number of cells having neurites with a length at least two times the diameter of each cell/total number of cells: 4.8 ± 0.1%
[2]; 0.1 mM
  Number of cells having neurites with a length at least two times the diameter of each cell/total number of cells: 18.6 ± 5.2%
[2]; 0.3 mM
  Number of cells having neurites with a length at least two times the diameter of each cell/total number of cells: 2.6 ± 0.6%
[2]; 1 mM
  Number of cells having neurites with a length at least two times the diameter of each cell/total number of cells: 7.6 ± 4.9%
[3]
  LD50 at 24 h: > 1000 mg/kg

## CN(C(=O)c1ccccc1)c1ccnc(N2CCCC2)n1 [Compound 120]
[1]; 24 hours, 0.5 mM
  Number of cells in which neurites appeared/total number of cells: 23/50
[1]; 48 hours, 0.5 mM
  Number of cells in which neurites appeared/total number of cells: 4/50
[2]; 0.1 mM
  Number of cells having neurites with a length at least two times the diameter of each cell/total number of cells: 4.9 ± 1.0%
[2]; 0.3 mM
  Number of cells having neurites with a length at least two times the diameter of each cell/total number of cells: 7.5 ± 4.1%
[3]
  LD50 at 24 h: > 1000 mg/kg

## CC(=O)N(C)c1ccnc(N2CCCCC2)n1 [Compound 128]
[1]; 24 hours, 0.3 mM
  Number of cells in which neurites appeared/total number of cells: 4/49
[1]; 24 hours, 1.0 mM
  Number of cells in which neurites appeared/total number of cells: 23/55
[1]; 48 hours, 0.3 mM
  Number of cells in which neurites appeared/total number of cells: 31/50
[1]; 48 hours, 0.5 mM
  Number of cells in which neurites appeared/total number of cells: 21/50
[2]; 0.3 mM
  Number of cells having neurites with a length at least two times the diameter of each cell/total number of cells: 9.9 ± 0.6%
[2]; 0.5 mM
  Number of cells having neurites with a length at least two times the diameter of each cell/total number of cells: 9.1 ± 0.7%
[2]; 1 mM
  Number of cells having neurites with a length at least two times the diameter of each cell/total number of cells: 19.8 ± 2.8%
[2]; 2 mM
  Number of cells having neurites with a length at least two times the diameter of each cell/total number of cells: 14.3 ± 2.4%
[3]
  LD50 at 24 h: > 1000 mg/kg

## CN(C(=O)c1ccc(N)cc1)c1ccnc(N2CCC(c3ccccc3)CC2)n1 [Compound 2182]
[2]; 0.03 mM
  Number of cells having neurites with a length at least two times the diameter of each cell/total number of cells: 8.0 ± 3.2%
[2]; 0.1 mM
  Number of cells having neurites with a length at least two times the diameter of each cell/total number of cells: 2.7 ± 0.9%
[3]
  LD50 at 24 h: 500 to 1000 mg/kg

## CN(C(=O)N1CCCCC1)c1ccnc(N2CCC(c3ccccc3)CC2)n1 [Compound 2210]
[2]; 0.03 mM
  Number of cells having neurites with a length at least two times the diameter of each cell/total number of cells: 9.5 ± 2.0%
[2]; 0.1 mM
  Number of cells having neurites with a length at least two times the diameter of each cell/total number of cells: 9.5 ± 1.9%
[3]
  LD50 at 24 h: 500 to 1000 mg/kg

## CN(C(=O)Nc1ccccc1)c1ccnc(N2CCC(c3ccccc3)CC2)n1 [Compound 2218]
[2]; 0.03 mM
  Number of cells having neurites with a length at least two times the diameter of each cell/total number of cells: 9.7 ± 1.8%
[2]; 0.1 mM
  Number of cells having neurites with a length at least two times the diameter of each cell/total number of cells: 11.4 ± 6.1%
[3]
  LD50 at 24 h: 500 to 1000 mg/kg

## CCOC(=O)N(C)c1ccnc(N2CCC(c3ccccc3)CC2)n1 [Compound 2242]
[2]; 0.03 mM
  Number of cells having neurites with a length at least two times the diameter of each cell/total number of cells: 3.3 ± 0.9%
[2]; 0.1 mM
  Number of cells having neurites with a length at least two times the diameter of each cell/total number of cells: 24.8 ± 2.9%
[3]
  LD50 at 24 h: 500 to 1000 mg/kg

## CN(C(=O)Cc1ccccc1)c1ccnc(N2CCC(c3ccccc3)CC2)n1 [Compound 2250]
[2]; 0.1 mM
  Number of cells having neurites with a length at least two times the diameter of each cell/total number of cells: 10.9 ± 3.9%
[2]; 0.3 mM
  Number of cells having neurites with a length at least two times the diameter of each cell/total number of cells: 19.2 ± 1.0%
[3]
  LD50 at 24 h: 500 to 1000 mg/kg

## CN(Cc1ccccc1)c1ccnc(N2CCC(c3ccccc3)CC2)n1 [Compound 2278]
[2]; 0.03 mM
  Number of cells having neurites with a length at least two times the diameter of each cell/total number of cells: 13.9 ± 6.3%
[2]; 0.1 mM
  Number of cells having neurites with a length at least two times the diameter of each cell/total number of cells: 12.5 ± 1.3%
[3]
  LD50 at 24 h: 500 to 1000 mg/kg

## CCN(CC)C(=O)N(C)c1ccnc(N2CCC(c3ccccc3)CC2)n1 [Compound 2302]
[2]; 0.03 mM
  Number of cells having neurites with a length at least two times the diameter of each cell/total number of cells: 8.0 ± 2.7%
[2]; 0.1 mM
  Number of cells having neurites with a length at least two times the diameter of each cell/total number of cells: 8.2 ± 4.7%
[3]
  LD50 at 24 h: 500 to 1000 mg/kg

## CN(C(=O)c1ccccc1)c1ccnc(N2CCC(C(=O)c3ccc(Cl)cc3)CC2)n1 [Compound 2310]
[2]; 0.1 mM
  Number of cells having neurites with a length at least two times the diameter of each cell/total number of cells: 8.3 ± 1.8%
[2]; 0.3 mM
  Number of cells having neurites with a length at least two times the diameter of each cell/total number of cells: 12.1 ± 3.6%
[3]
  LD50 at 24 h: 500 to 1000 mg/kg

## CON(C(=O)c1ccccc1)c1ccnc(N2CCC(c3ccccc3)CC2)n1 [Compound 2318]
[2]; 0.03 mM
  Number of cells having neurites with a length at least two times the diameter of each cell/total number of cells: 7.7 ± 1.4%
[2]; 0.1 mM
  Number of cells having neurites with a length at least two times the diameter of each cell/total number of cells: 35.1 ± 1.3%
[2]; 0.3 mM
  Number of cells having neurites with a length at least two times the diameter of each cell/total number of cells: 18.6 ± 5.2%
[2]; 1 mM
  Number of cells having neurites with a length at least two times the diameter of each cell/total number of cells: 8.8 ± 1.3%
[3]
  LD50 at 24 h: 500 to 1000 mg/kg

## CN(C(=O)N1CCOCC1)c1ccnc(N2CCC(c3ccccc3)CC2)n1 [Compound 2326]
[2]; 0.03 mM
  Number of cells having neurites with a length at least two times the diameter of each cell/total number of cells: 4.6 ± 1.4%
[2]; 0.1 mM
  Number of cells having neurites with a length at least two times the diameter of each cell/total number of cells: 8.3 ± 2.6%
[3]
  LD50 at 24 h: 500 to 1000 mg/kg

## CN(C(=O)Oc1ccccc1)c1ccnc(N2CCC(c3ccccc3)CC2)n1 [Compound 2334]
[2]; 0.03 mM
  Number of cells having neurites with a length at least two times the diameter of each cell/total number of cells: 13.2 ± 0.2%
[2]; 0.1 mM
  Number of cells having neurites with a length at least two times the diameter of each cell/total number of cells: 16.7 ± 0.8%
[3]
  LD50 at 24 h: > 1000 mg/kg

## CN(C(=O)c1ccccc1)c1ccnc(NC2CN3CCC2CC3)n1 (stereo not shown) [Compound 2342]
[2]; 0.03 mM
  Number of cells having neurites with a length at least two times the diameter of each cell/total number of cells: 5.9 ± 2.1%
[2]; 0.1 mM
  Number of cells having neurites with a length at least two times the diameter of each cell/total number of cells: 11.4 ± 1.4%
[3]
  LD50 at 24 h: 500 to 1000 mg/kg

## CN(C(=O)c1ccccc1)c1ccnc(N2CCC(OS(=O)(=O)c3ccccc3)CC2)n1 [Compound 2350]
[2]; 0.3 mM
  Number of cells having neurites with a length at least two times the diameter of each cell/total number of cells: 5.9 ± 1.5%
[2]; 1 mM
  Number of cells having neurites with a length at least two times the diameter of each cell/total number of cells: 8.3 ± 2.0%
[3]
  LD50 at 24 h: 500 to 1000 mg/kg

## CN1C(=O)Cc2cnc(N3CCN(C(c4ccc(Cl)cc4)c4ccc(Cl)cc4)CC3)nc21 [Compound 3176]
[2]; 0.03 mM
  Number of cells having neurites with a length at least two times the diameter of each cell/total number of cells: 7.3 ± 3.3%
[2]; 0.1 mM
  Number of cells having neurites with a length at least two times the diameter of each cell/total number of cells: 23.1 ± 4.8%
[2]; 0.3 mM
  Number of cells having neurites with a length at least two times the diameter of each cell/total number of cells: 21.2 ± 4.9%
[2]; 1 mM
  Number of cells having neurites with a length at least two times the diameter of each cell/total number of cells: 14.6 ± 5.0%
[3]
  LD50 at 24 h: 500 to 1000 mg/kg

## CN1C(=O)Cc2cnc(N3CCN(C(c4ccc(F)cc4)c4ccc(F)cc4)CC3)nc21 [Compound 3184]
[2]; 0.03 mM
  Number of cells having neurites with a length at least two times the diameter of each cell/total number of cells: 3.7 ± 1.1%
[2]; 0.1 mM
  Number of cells having neurites with a length at least two times the diameter of each cell/total number of cells: 13.9 ± 2.3%
[2]; 0.3 mM
  Number of cells having neurites with a length at least two times the diameter of each cell/total number of cells: 18.4 ± 1.9%
[2]; 1 mM
  Number of cells having neurites with a length at least two times the diameter of each cell/total number of cells: 17.0 ± 2.1%
[3]
  LD50 at 24 h: 500 to 1000 mg/kg
